Data: ChEMBL document CHEMBL6177953, “Discovery of a novel quinoxaline derivative modulator via a dual P53/TLR2 targeting strategy for the alleviation of radiation damage” (Eur J Med Chem, 2025)
Activity calls are given as the source filed them. No cut-off for these calls is given here.

Key:
[1] = system: AHH-1; assay: Antiradiation activity in human AHH-1 cells assessed as increase in cell viability at 2.5 to 10 micromol/L pre-treated with compound for 24 hrs followed by irradiation at 6 Gy measured after 24 hrs by CCK-8 assay; format: functional, cell-based; settings: dose 2.5-10 µmol/L, time 48.0 hrs
[2] = system: AHH-1; assay: Antiradiation activity in human AHH-1 cells assessed as increase in cell viability at 2.5 to 10 micromol/L pre-treated with compound for 24 hrs followed by irradiation at 4 Gy measured after 24 hrs by CCK-8 assay; format: functional, cell-based; settings: dose 2.5-10 µmol/L, time 48.0 hrs
[3] = system: AHH-1; assay: Cytotoxicity against human AHH-1 cells incubated for 24 to 96 hrs by CCK-8 assay; format: functional, cell-based
[4] = system: AHH-1; assay: Antiradiation activity in human AHH-1 cells assessed as increase in cell viability at 2.5 to 10 micromol/L pre-treated with compound for 24 hrs followed by irradiation at 8 Gy measured after 24 hrs by CCK-8 assay; format: functional, cell-based; settings: dose 2.5-10 µmol/L, time 48.0 hrs
[5] = system: AHH-1; assay: Induction of apoptosis in human AHH-1 cells assessed as viable cells pre-treated with compound for 24 hrs followed by irradiation at 6 Gy and measured after 24 hrs by Annexin V-FITC/PI staining based Flow cytometry analysis (reference value: 83.6%); format: functional; settings: time 48 hrs
[6] = system: AHH-1; assay: Induction of apoptosis in human AHH-1 cells assessed as necrotic cells pre-treated with compound for 24 hrs followed by irradiation at 6 Gy and measured after 24 hrs by Annexin V-FITC/PI staining based Flow cytometry analysis (reference value: 5.37%); format: functional; settings: time 48 hrs
[7] = system: Mus musculus; assay: Radioprotective activity in male C57BL/6J mouse assessed as increase in body weight at 100 to 300 mg/kg, ip pre-treated with compound for 24.25 hrs followed by irradiation at 8.5 Gy and measured on day 18 post irradiation; format: functional, organism-based; settings: dose 100-300 mg/kg, time 456.25 hrs
[8] = system: AHH-1; assay: Induction of apoptosis in human AHH-1 cells assessed as late apoptotic cells pre-treated with compound for 24 hrs followed by irradiation at 6 Gy and measured after 24 hrs by Annexin V-FITC/PI staining based Flow cytometry analysis (reference value: 2.65%); format: functional; settings: time 48 hrs
[9] = system: Mus musculus; assay: Radioprotective activity in male C57BL/6J mouse assessed as survival rate at 300 mg/kg, ip pre-treated with compound for 24.25 hrs followed by irradiation at 8.5 Gy and measured for 30 days post irradiation relative to control; format: functional; settings: time 744.25 hrs
[10] = Cytotoxicity against HUVEC incubated for 24 to 96 hrs by CCK-8 assay; format: toxicity, cell-based; settings: human, HUVEC cells
[11] = system: AHH-1; assay: Induction of apoptosis in human AHH-1 cells assessed as early apoptotic cells pre-treated with compound for 24 hrs followed by irradiation at 6 Gy and measured after 24 hrs by Annexin V-FITC/PI staining based Flow cytometry analysis (reference value: 8.15%); format: functional; settings: time 48 hrs
[12] = system: Mus musculus; assay: Radioprotective activity in male C57BL/6J mouse assessed as increase in cell growth at 250 to 300 mg/kg, ip pre-treated with compound for 24.25 hrs followed by irradiation at 6.5 Gy and measured on 30 day post irradiation; format: functional, organism-based; settings: dose 250-300 mg/kg, time 744.25 hrs
[13] = system: Mus musculus; assay: Radioprotective activity in male C57BL/6J mouse assessed as survival rate at 100 mg/kg, ip pre-treated with compound for 24.25 hrs followed by irradiation at 8.5 Gy and measured for 30 days post irradiation relative to control; format: functional; settings: time 744.25 hrs
[14] = system: Mus musculus; assay: Radioprotective activity in male C57BL/6J mouse assessed as survival rate at 250 mg/kg, ip pre-treated with compound for 24.25 hrs followed by irradiation at 8.5 Gy and measured for 30 days post irradiation relative to control; format: functional; settings: time 744.25 hrs
[15] = system: HUVEC; assay: Antiradiation activity in human HUVEC assessed as cell viability at 5 to 20 micromol/L pre-treated with compound for 24 hrs followed by irradiation at 6 Gy measured after 96 hrs by CCK-8 assay; format: functional, cell-based; settings: dose 5-20 µmol/L, time 120.0 hrs
[16] = system: HUVEC; assay: Antiradiation activity in human HUVEC assessed as cell viability at 5 to 20 micromol/L pre-treated with compound for 24 hrs followed by irradiation at 8 Gy measured after 96 hrs by CCK-8 assay; format: functional, cell-based; settings: dose 5-20 µmol/L, time 120.0 hrs

Compound	Activity [1]	Activity [2]	IC50 [3]	Activity [4]	further results
Cc1ccc(CSc2cnc3ccccc3n2)cc1	Active	Active	> 60 µM	Active	–
[O-][S+](Cc1ccccc1)c1cnc2cc(Cl)ccc2n1 (stereo not drawn)	–	–	6.28 µM	–	–
O=S(=O)(Cc1ccc(F)cc1)c1cnc2ccccc2n1	–	–	> 60 µM	–	–
O=S(=O)(Cc1ccc(Cl)cc1)c1cnc2cc(Br)ccc2n1	–	–	> 60 µM	–	–
O=S(=O)(Cc1ccc(Cl)cc1)c1cnc2cc(Cl)ccc2n1	–	–	18.6 µM	–	–
O=S(=O)(Cc1ccc(Cl)cc1)c1cnc2ccccc2n1	–	–	5.56 µM	–	–
Clc1ccc2nc(SCc3ccccc3)cnc2c1	Active	Active	> 60 µM	Active	–
O=S(=O)(Cc1ccc(Br)cc1)c1cnc2cc(Br)ccc2n1	–	–	21.7 µM	–	–
N#Cc1ccc(CSc2cnc3cc(Cl)ccc3n2)cc1	Active	Active	> 60 µM	Active	–
Fc1ccc(CSc2cnc3cc(Cl)ccc3n2)cc1	–	–	> 60 µM	–	–
Clc1ccc2nc(SCc3ccc(Br)cc3)cnc2c1	–	–	> 60 µM	–	–
Fc1ccc(CSc2cnc3ccccc3n2)cc1	Active	Active	58.8 µM	Active	–
N#Cc1ccc(CSc2cnc3ccccc3n2)cc1	Active	Active	17.3 µM	Active	–
O=C(O)c1ccc(CSc2cnc3cc(Cl)ccc3n2)cc1	Active	Active	> 60 µM	Active	–
O=C([O-])c1ccc(/C=C/S(=O)(=O)Cc2ccc(Cl)cc2)cc1.[Na+] [RECILISIB SODIUM]	Active	Active	39.6 µM	Active	Activity [5]: 66.6%; Activity [6]: 5.5%; Activity [7]: Active; Activity [8]: 8.65%; Activity [9]: 20%; IC50 [10]: > 60 µM; Activity [11]: 19.2%; Activity [12]: Active
COc1ccc(CSc2cnc3cc(Br)ccc3n2)cc1	Active	Active	39.5 µM	Active	–
O=S(=O)(Cc1ccc(F)cc1)c1cnc2cc(Br)ccc2n1	–	–	> 60 µM	–	–
[O-][S+](Cc1ccc(Br)cc1)c1cnc2cc(Cl)ccc2n1 (stereo not drawn)	–	–	12.9 µM	–	–
Cc1ccc(CSc2cnc3cc(Cl)ccc3n2)cc1	Active	Active	> 60 µM	Active	–
O=C(O)c1ccc(CS(=O)(=O)c2cnc3cc(Cl)ccc3n2)cc1	Active	Active	22.4 µM	Active	Activity [7]: Active; IC50 [10]: > 60 µM; Activity [13]: 50%
Cc1ccc(CS(=O)(=O)c2cnc3ccccc3n2)cc1	Active	Active	36.5 µM	Active	Activity [7]: Active; Activity [14]: 80%; Activity [15]: Active; IC50 [10]: 56.1 µM; Activity [16]: Active
Brc1ccc(CSc2cnc3ccccc3n2)cc1	Active	Active	8.9 µM	Active	–
[O-][S+](Cc1ccc(F)cc1)c1cnc2cc(Cl)ccc2n1 (stereo not drawn)	–	–	5.23 µM	–	–
Brc1ccc(CSc2cnc3cc(Br)ccc3n2)cc1	–	–	4.58 µM	–	–

Compound	Activity [1]	Activity [2]	IC50 [3]	Activity [4]	further results
Cc1ccc(CS(=O)(=O)c2cnc3cc(Br)ccc3n2)cc1	–	–	> 60 µM	–	–
O=S(=O)(Cc1ccc(Br)cc1)c1cnc2ccccc2n1	Active	Active	> 60 µM	Active	–
O=C(O)c1ccc(CS(=O)(=O)c2cnc3ccccc3n2)cc1	Active	Active	> 60 µM	Active	–
[O-][S+](Cc1ccc(Br)cc1)c1cnc2ccccc2n1 (stereo not drawn)	–	–	> 60 µM	–	–
Cc1ccc(CS(=O)(=O)c2cnc3cc(Cl)ccc3n2)cc1	–	–	27.7 µM	–	–
Cc1ccc(C[S+]([O-])c2cnc3cc(Cl)ccc3n2)cc1 (stereo not drawn)	–	–	13 µM	–	–
Fc1ccc(CSc2cnc3cc(Br)ccc3n2)cc1	Active	Active	22.2 µM	Active	–
O=S(=O)(Cc1ccccc1)c1cnc2cc(Cl)ccc2n1	–	–	6.27 µM	–	–
[O-][S+](Cc1ccc(Cl)cc1)c1cnc2cc(Cl)ccc2n1 (stereo not drawn)	–	–	11.2 µM	–	–
Clc1ccc(CSc2cnc3ccccc3n2)cc1	Active	Active	16.6 µM	Active	–
COc1ccc(CSc2cnc3cc(Cl)ccc3n2)cc1	Active	Active	> 60 µM	Active	–
Cc1ccc(CSc2cnc3cc(Br)ccc3n2)cc1	–	–	11.3 µM	–	–
Clc1ccc(CSc2cnc3cc(Br)ccc3n2)cc1	–	–	3.03 µM	–	–
O=C(O)c1ccc(CSc2cnc3cc(Br)ccc3n2)cc1	Active	Active	> 60 µM	Active	–
N#Cc1ccc(C[S+]([O-])c2cnc3cc(Cl)ccc3n2)cc1 (stereo not drawn)	–	–	4.59 µM	–	–
[O-][S+](Cc1ccc(F)cc1)c1cnc2cc(Br)ccc2n1 (stereo not drawn)	–	–	> 60 µM	–	–
N#Cc1ccc(CS(=O)(=O)c2cnc3cc(Cl)ccc3n2)cc1	Active	Active	4.8 µM	Active	–
[O-][S+](Cc1ccc(F)cc1)c1cnc2ccccc2n1 (stereo not drawn)	Active	Active	> 60 µM	Active	–
Clc1ccc(CSc2cnc3cc(Cl)ccc3n2)cc1	Active	Active	53.8 µM	Active	–
O=S(=O)(Cc1ccc(Br)cc1)c1cnc2cc(Cl)ccc2n1	Active	Active	15.5 µM	Active	–
COc1ccc(CSc2cnc3ccccc3n2)cc1	Active	Active	> 60 µM	Active	–
O=S(=O)(Cc1ccc(F)cc1)c1cnc2cc(Cl)ccc2n1	Active	Active	6.32 µM	Active	–
O=C(O)c1ccc(CSc2cnc3ccccc3n2)cc1	Active	Active	> 60 µM	Active	–
